# Values of other authors in patent US20260007589A1, “METHOD FOR DYEING KERATINOUS MATERIAL COMPRISING THE USE OF AN ORGANOSILICON COMPOUND, AN EFFECT PIGMENT, AND A FILM-FORMING POLYMER III” (Henkel AG & Co. KGaA, priority 2019, published 2026).
# Where two headings read alike, the source gives them in different places.
solubility in water (at 25° C.),Structure (SMILES),solubility in water (25° C.)
,"Nc1cc(S(=O)(=O)[O-])cc2cc(S(=O)(=O)[O-])c(N=Nc3ccccc3)c(O)c12.[Na+].[Na+] [Acid Red 33, disodium salt of 5-amino-4-hydroxy-3-(phenylazo)-naphthalene-2,7-disulphonate]",2500 µg/mL
,"O=S(=O)([O-])c1ccc(N=Nc2c(O)ccc3ccccc23)cc1.[Na+] [Acid Orange 7, sodium salt of 4-[(2-hydroxy-1-naphthyl)azo]benzene sulphonate]",more than 7 g/L
highly soluble in water,"O=C([O-])C1=NN(c2ccc(S(=O)(=O)[O-])cc2)C(=O)C1N=Nc1ccc(S(=O)(=O)[O-])cc1.[Na+].[Na+].[Na+] (centres unmarked) [Acid Yellow 23, trisodium salt of 4,5-dihydro-5-oxo-1-(4-sulfophenyl)-4-((4-sulfophenyl)azo)-1H-pyrazole-3-carboxylic acid]",
,"O=C([O-])c1c(Cl)c(Cl)c(Cl)c(Cl)c1-c1c2c(Br)cc(=O)c(Br)c-2oc2c(Br)c(O)cc(Br)c12.O=C([O-])c1c(Cl)c(Cl)c(Cl)c(Cl)c1-c1c2c(Br)cc(=O)c(Br)c-2oc2c(Br)c(O)cc(Br)c12.[Na+].[Na+] [Acid Red 92, disodium salt of 3,4,5,6-tetrachloro-2-(1,4,5,8-tetrabromo-6-hydroxy-3-oxoxanthen-9-yl)benzoic acid]",greater than 10 g/L
,CCN(Cc1cccc(S(=O)(=O)[O-])c1)c1ccc(C(=C2C=CC(=[N+](CC)Cc3cccc(S(=O)(=O)[O-])c3)C=C2)c2ccccc2S(=O)(=O)[O-])cc1.[Na+].[Na+] [Acid Blue 9],more than 20 % by weight
